Data published in patent publication US8765777B2, “Compositions and methods of use for tyrosine kinase inhibitors to treat pathogenic infection” (priority 2008, dated 2014).
“Also recorded” adds a separate entry of the source.

Legend:
[1] = system: Abl-tyrosine family kinases; details: Shah et al. (2004) Science 305:399-401; cited from earlier work
[2] = system: VV (strain WR); format: cell-based, Vaccinia virus
[3] = system: EPEC (strain 2389/69); assay: EPEC actin pedestal formation on 3T3 cells; format: cell-based, enteropathogenic E. coli
[4] = system: VV extracellular enveloped virus (EEV); format: cell-based, Vaccinia virus
[5] = Tolerability of the drugs in uninfected mice
[6] = system: HIV-1 Bal; assay: p24 production of macrophages infected with HIV-1 Bal; format: cell-based
[7] = system: VV; format: cell-based, Vaccinia virus
[8] = system: VV; details: 100 mg/kg/day via subcutaneous osmotic pump, 10^4 pfu VV intraperitoneally, four days post infection; FIG. 4
[9] = system: VV-WR
[10] = system: Mycobacterium tuberculosis (TB); format: cell-based
[11] = system: GFP-VV; format: cell-based, Vaccinia virus
[12] = up to 100 mg/kg/day i.p., 10 day period

Cc1nc(Nc2ncc(C(=O)Nc3c(C)cccc3Cl)s2)cc(N2CCN(CCO)CC2)n1 [BMS-354825, N-(2-chloro-6-methylphenyl)-2-(6-(4-(2-hydroxyethyl)piperazin-1-yl)-2-methylpryimidin-4-ylamino)thiazole-5-carboxamide]
potency relative to STI-571 [1]: two-log increased potency

CC(C)(C)n1nc(-c2ccc(Cl)cc2)c2c(N)ncnc21 [PP2]
concentrations that blocked actin tails [2]: ≥ 25 µM
pedestals in Abl−/−/Arg−/− cells ([3]; Abl−/−/Arg−/− cells): not
pedestal formation ([3]; concentrations up to 100 μM, the highest tested): without effect

Cc1ccc(NC(=O)c2ccc(CN3CCN(C)CC3)cc2)cc1Nc1nccc(-c2cccnc2)n1 [STI-571, 4-[(4-Methyl-1-piperazinyl)methyl]-N-[4-methyl-3-[[4-(3-pyridinyl)-2-pyrimidinyl]amino]-phenyl]benzamide methanesulfonate]
formation of comets apposed to plaques [4]: blocked the formation
reduction in PFU of supernatant on BSC-40 cells [4]: ~2 fold
weight and other adverse effects in uninfected animals ([5]; 100 mg/kg/day, subcutaneously implanted osmotic pumps): no loss in weight or other adverse effects
tolerability ([5]; intraperitoneal injection, up to 100 mg/kg/day in saline, up to 10 days): well tolerated
pathology upon necropsy with drug alone [5, 12]: no overt pathology
weight loss with drug alone [5, 12]: no indication of weight loss
actin tail formation [2]: did not block actin tail formation
average number of actin tails per cell [2]: ~3 per cell
cells having no actin tails [2]: 30%
number of actin tails per cell [2]: no detectable effects
reduction of average number of actin tails per cell [2]: 16 fold
viral replication (extranuclear DAPI staining) and transit of GFP-labeled virions to the cell periphery [2]: no effect
VV actin motility, actin tail formation or number ([2]; methanesulfonate): no discernable effect; also recorded: no difference in actin tail formation or number was evident
P24 day 7 ([6]; Cells + HIV-1 Bal + drug 1 μM, HIV-1 Bal alone 322 +/− 28): 287 ± 31 pg/mL
P24 day 14 ([6]; Cells + HIV-1 Bal + drug 1 μM, HIV-1 Bal alone 956 +/− 34): 744 ± 27 pg/mL
P24 day 7 ([6]; Cells + HIV-1 Bal + drug 5 μM): 212 ± 44 pg/mL
P24 day 14 ([6]; Cells + HIV-1 Bal + drug 5 μM): 556 ± 28 pg/mL
P24 day 7 ([6]; Cells + HIV-1 Bal + drug 10 μM): 127 ± 22 pg/mL
P24 day 14 ([6]; Cells + HIV-1 Bal + drug 10 μM): 245 ± 31 pg/mL
P24 day 7 ([6]; Cells + drug 1 μM, no virus): <10 pg/mL
P24 day 14 ([6]; Cells + drug 1 μM, no virus): <10 pg/mL
P24 day 7 ([6]; Cells + drug 5 μM, no virus): <10 pg/mL
P24 day 14 ([6]; Cells + drug 5 μM, no virus): <10 pg/mL
P24 day 7 ([6]; Cells + drug 10 μM, no virus): <10 pg/mL
P24 day 14 ([6]; Cells + drug 10 μM, no virus): <10 pg/mL
reduction of viral replication (p24 levels) ([6]; dose dependent, 1-10 μM): up to 4 fold
amount of virus produced (viral replication) [7]: nearly equivalent amounts of virus
reduction of viral load (copies of VV UDG gene per 250 ng DNA of ovary) [8]: 4-5 logs
EPEC pedestal formation ([3]; 25 μM): did not
plaque formation [9]: did inhibit plaque formation
intercellular survival of M. tuberculosis [10]: increases the intercellular survival

Cc1ccc(NC(=O)c2ccc(CN3CCN(Cc4ccccc4)CC3)cc2)cc1Nc1nccc(-c2cccnc2)n1 [STI-X]
actin tail formation [11]: failed to form actin tails
percentage of cells containing DAPI-stained extranuclear viral replication factories [11]: 4%
replication centers (DAPI staining or α-Ptyr pAb) and actin motility [11]: still evident; also recorded: no effect
viral entry (GFP-labeled virions and EVP staining) [11]: little detectable effect on viral entry
plaque formation [9]: reduced
tolerability by the cells in plaque assays [9]: well tolerated
